Experimental data reported in patent US20050288369A1, “Novel n-hydroxy thiourea, urea and amide compounds and the pharmaceutical compositions comprising the same” (priority 2002, published 2005).

Legend:
Male ICR mice = test: Acetic acid-induced writhing test; format: in vivo; conditions: for ED50: Mus musculus, ip, i.p. 30 mins before 1.2% acetic acid i.p., 50% reduction of the number of writhes; for analgesic effect compared with thiourea compounds JYL-827 and 1433: writhing test
Protocol: The acetic acid-induced writhing test for testing the analgesic activity of inventive compounds prepared from above Examples was performed by the procedure described in the literature (Lee, J. W., Bioorganic & Medicinal Chemistry, pp 1713-1720, 2001).
Male ICR mice having its mean body weight of 25 g (CD-1; Biogenomics Co. Korea) were reared in lighting controlled environment (12 hrs on/12 hrs off) maintaining with temperatures at 22±2° C. and humidity at 50±5% and allowed to eat a diet and to drink tap water ad lib.
Mice were fasted overnight prior to testing and adopted to the environment.
0.3 ml of acetic acid solution (1.2%) was administrated in the mice intraperitoneally and then the mice were put into the transparent acryl box (15×15×15 cm). 5 minutes later, the number of abdominal constrictions was counted for 20 minutes. Each group consisting of ten mice was pretreated with test compounds or solvent (0.2 ml, i.p.) 30 mins before the injection of acetic acid. Test compounds were dissolved in the mixture of ethanol/Tween-80/saline ([…]) or cremophor EL/DMSO/d-water ([…]).
Analgesic activity of each drug was determined at several different concentrations.
The index of analgesic activity (eff) was defined as below Empirical formula 1. Analgesic activity (eff)=100−{(No. of abdominal constriction of test group/No. of abdominal constriction of control group)×100} [Empirical formula 1]
Analgesic activity was expressed as the reduction in the number of abdominal constrictions, of control animals (vehicle-pretreated mice) and animals pretreated with test compounds.

VR1 [1] = biological target: T1, VR1 (Rattus norvegicus, UniProt O35433); test: 45Ca influx test in CHO cells expressing VR1, antagonistic activity against 50 nM capsaicin; format: cell-based; conditions: 45Ca uptake stimulated with 50 nM capsaicin
T1 construct: expressed in transfected cells; host or cells: Chinese Hamster Ovary cells (CHO, ATCC CCL-61), Tet-off inducible expression
T1 sequence (O35433 whole entry): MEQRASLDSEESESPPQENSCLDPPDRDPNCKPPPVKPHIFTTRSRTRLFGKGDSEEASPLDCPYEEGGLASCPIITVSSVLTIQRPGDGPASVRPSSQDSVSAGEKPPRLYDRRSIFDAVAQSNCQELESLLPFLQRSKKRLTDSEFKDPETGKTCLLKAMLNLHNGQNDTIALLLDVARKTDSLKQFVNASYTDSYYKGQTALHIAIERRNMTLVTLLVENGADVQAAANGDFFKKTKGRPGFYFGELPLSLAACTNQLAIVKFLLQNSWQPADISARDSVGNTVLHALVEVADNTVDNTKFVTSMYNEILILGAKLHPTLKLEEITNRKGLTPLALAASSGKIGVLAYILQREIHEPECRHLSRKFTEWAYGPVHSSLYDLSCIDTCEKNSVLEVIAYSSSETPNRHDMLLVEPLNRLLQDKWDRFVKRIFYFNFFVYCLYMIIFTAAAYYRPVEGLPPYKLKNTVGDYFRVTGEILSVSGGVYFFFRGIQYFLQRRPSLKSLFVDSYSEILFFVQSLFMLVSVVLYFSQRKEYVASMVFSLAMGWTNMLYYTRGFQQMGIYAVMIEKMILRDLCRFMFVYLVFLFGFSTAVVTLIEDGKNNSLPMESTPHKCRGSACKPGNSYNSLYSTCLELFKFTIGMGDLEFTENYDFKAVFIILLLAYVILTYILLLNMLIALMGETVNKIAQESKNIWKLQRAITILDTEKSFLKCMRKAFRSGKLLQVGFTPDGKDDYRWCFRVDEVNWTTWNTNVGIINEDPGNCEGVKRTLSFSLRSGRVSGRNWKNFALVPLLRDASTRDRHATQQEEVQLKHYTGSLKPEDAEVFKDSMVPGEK
Protocol: (§1) The ^45Ca Influx test by using CHO cells of the inventive compounds was measured by using Chinese Hamster Ovary (CHO, ATCC, No. CCL-61) cell whose cDNA of VR1 (pUHG102 VR1 plasmid) was transfected, which can control the expression of VR1 according to the presence of tetracycline and Tetracycline on/off system (pTet off regulatory plasmid, Clontech. Inc., USA) that the expression of VR1 is induced by removing tetracycline from the medium.
(§2) The CHO cells were poured onto 24 well plates to the extent that its density reaches at 30% and incubated for 24 hours at 37° C. The culture medium was exchanged to tetracycline free medium to induce the expression of VR1 and tested after 36 hours.
(§3) Together with 0.25 mg/ml BSA (Sigma A2153, USA), 1 Ci/ml ^45Ca(5-30 Ci/g used, ICN. Co., 62005 RT, U.S.A.), the test samples with increasing concentrations were added to each well. At the quenching moment of the incubation with ^45Ca, the cultured cells were removed from the medium, washed three times with cool PBS buffer solution containing 1.8 mM CaCl2 and 400 μl of RIPA buffer solution (50 mM Tris pH 7.4; 150 mM sodium chloride; 0.1% SDS; 1% sodium deoxycholate), was added in each well to homogenize the cells. The plates were stirred for 20 minutes slowly and 300 μl of cell lysate was transferred to scintillation vials from each wells. The radioactivity was determined by scintillation counter.
(§4) The data were assessed by determining four wells per each data point in each experiment and analyzed in computer by being transformed into Hill equation. The experiments were determined in triplicate in each sample comprising inventive compounds and control groups.
In order to determine the antagonistic activity, ^45Ca^2+-uptake stimulating-mixture was added with 50 nM capsaicin and the antagonistic activity was determined by the method for the agonistic activity. In case that 10 μM a certain compound cannot change the capsaicin-inducing activity, the compound shall be regarded as an […].

[2] = biological target: T2, vanilloid receptor-1 (VR1) (Rattus norvegicus, UniProt O35433); test: [3H]RTX competition binding assay, VR1-expressing CHO cells; conditions: displacement of bound [3H]RTX; mean±SEM, 3 experiments
T2 construct: expressed in transfected cells; host or cells: Chinese Hamster Ovary cells (CHO, ATCC CCL-61), Tet-off inducible expression
T2 sequence (O35433 whole entry): as above
Protocol: The binding affinity activity of the target compounds for vanilloid receptor-1 was measured by an in vitro receptor binding affinity assay. In the receptor binding assay, the compounds were evaluated for their ability to displace bound [^3H]RTX from the receptor. The results are expressed in terms of Ki values (mean±SEM, 3 experiments) which represent the concentration of the non-radioactive ligand that displaces half of the bound labeled RTX.
The VR receptor binding affinity activity of the inventive compounds was measured by using Chinese Hamster Ovary (CHO, ATCC, No. CCL-61) cell whose cDNA of VR1 (pUHG102 VR1 plasmid) was transfected, which can control the expression of VR1 according to the presence of tetracycline and Tetracycline on/off system (pTet off regulatory plasmid, Clontech. Inc., USA) that the expression of VR1 is induced by removing tetracycline from the medium. […] The cells were cultured after removing tetracycline prior to 48 hours. The tetracycline free culture medium was seeded at the bottom of T75 flask, incubated to the extent that its density reaches at 90%, and washed once with PBS buffer solution. The cells were collected by using saline solution containing 5 mM EDTA and subjected to centrifugation slightly to obtain precipitates, further, which had been kept at the temperature of −20° C. before use.
Experiments were designed to assess inhibition of specific [^3H]RTX binding to membranes by non-radioactive compounds. The binding assay mixture containing [^3H]RTX ([…]), various concentrations of competitive binding substances, 0.25 mg/ml of BSA (Cohn fraction V), 5×10^4 ˜5×10^5 numbers of VR1 and the expression cell, was admixed with saline solution containing 450 μl of Ca^2+ and Mg^2+ and […] of BSA. Non-specific binding assay was measured after mixing 100 nM of non-radioactive RTX thereto. The reaction mixture was treated for 60 min at 37° C. and the reaction was quenched by cooling over ice. RTX bound to the membrane of VR1 was subjected to centrifugation with maximum velocity for 15 minutes to precipitate its membrane residue, which results in separating from non-binding RTX. The tips of tube containing above precipitate was cut off and the amount of bound radioisotope was determined by scintillation counter (LS6500, Beckman-Coulter, USA). The measurement of binding was determined in triplicate in each experiment, and each experiment was repeated at least two times. Binding data were analyzed by fitting to the Hill equation and the Ki (equilibrium binding parameter) index, the Bmax (maximum binding parameter) index, and the cooperativity index etc., were determined by using origin 6.0 program (Origin, MicroCal Co., USA).
An initial compound was dissolved in DMSO (dimethyl sulfoxide) and diluted with saline solution containing Ca^2+ and […], and […] of BSA.

VR1 [3] = biological target: T1, VR1; test: 45Ca influx test in CHO cells expressing VR1, agonistic activity; format: cell-based; conditions: 45Ca uptake
Protocol: The ^45Ca Influx test by using CHO cells expressing VR1 was performed by the procedure described in the literature (Lee, J. W., Bioorganic & Medicinal Chemistry, pp 1713-1720, 2001).
as §1, §2
as §3, with “In radioactive ^45Ca uptake experiment, The cells were incubated in […] of DMEM medium (Dulbecco's modified Eagles medium: Gibco-BRL, 31600-083) containing free of serum and 1.8 mM CaCl2 for 10 minutes at 37*C. Together” for “Together”
as §4

IC50 (VR1 [1]) [nM] | Ki [2] [nM] | melting point [°C] | EC50 (VR1 [3]) [nM] | SMILES | ED50 (Male ICR mice) [µg/kg] | analgesic effect compared with thiourea compounds JYL-827 and 1433 (Male ICR mice) | analgesic effect, fold stronger than that of Ketorolac (Male ICR mice; ratio of writhing test ED50 values)
470 | 1090 | 137 |  | CC(C)(C)c1ccc(CN(O)C(=S)NCc2ccc(NS(C)(=O)=O)cc2)cc1 [Compound 28, N-(4-tert-butylbenzyl)-N-hydroxy-N-[4-(methylsulfonylamino)benzyl]thiourea] | 1560 |  | 
6590 | 6380 | 161 to 163 | 3500 | CC(C)(C)c1ccc(CN(O)C(=O)Cc2ccc(NS(C)(=O)=O)cc2)cc1 [Compound 45, N-(4-tert-butylbenzyl)-N-hydroxy-[4-(methylsulfonylamino)phenyl] acetamide] |  |  | 
465 | 4260 | 124 |  | CC(C)(C)c1ccc(CNC(=S)N(O)Cc2ccc(NS(C)(=O)=O)cc2)cc1 [Compound 60, N-(4-tert-butylbenzyl)-N-hydroxy-N-[4-(methylsulfonylamino)benzyl]thiourea] |  |  | 
 |  | 125 | 1060 | CC(C)(C)c1ccc(CNC(=O)N(O)Cc2ccc(NS(C)(=O)=O)cc2)cc1 [Compound 62, N-(4-tert-butylbenzyl)-N-hydroxy-N-[4-(methylsulfonylamino)benzyl]urea] |  |  | 

Continued, compound first:

SMILES | IC50 (VR1 [1]) [nM] | Ki [2] [nM] | melting point [°C] | EC50 (VR1 [3]) [nM] | ED50 (Male ICR mice) [µg/kg] | analgesic effect compared with thiourea compounds JYL-827 and 1433 (Male ICR mice) | analgesic effect, fold stronger than that of Ketorolac (Male ICR mice; ratio of writhing test ED50 values)
COc1cc(CNC(=S)N(O)Cc2ccc(C(C)(C)C)cc2)ccc1NS(C)(=O)=O [Compound 29, N-(4-tert-butylbenzyl)-N-hydroxy-N-[3-methoxy-4-(methylsulfonylamino)benzyl]thiourea] |  |  | 112.5 to 115 | 2010 | 0.103 |  | 
CC(C)(C)c1ccc(CN(O)C(=S)NCc2ccc(NS(C)(=O)=O)c(F)c2)cc1 [Compound 30, N-(4-tert-butylbenzyl)-N-hydroxy-N-[3-fluoro-4-(methylsulfonylamino)benzyl]thiourea] |  | 802 | 124 to 126 | > 7060 | 1.07 |  | 
Cc1ccc(CC(COC(=O)C(C)(C)C)CN(O)C(=S)NCc2ccc(NS(C)(=O)=O)cc2)cc1C (centres unmarked) [Compound 35, N-[2-(3,4-dimethylbenzyl)-3-(pivaloyloxy)propyl]-N-hydroxy-N-[4-(methylsulfonylamino)benzyl]thiourea] | 212 | 1040 |  | 1230 | 2.6 | stronger analgesic effect | 
Cc1ccc(CC(COC(=O)C(C)(C)C)CN(O)C(=S)NCc2ccc(NS(C)(=O)=O)c(F)c2)cc1C (centres unmarked) [Compound 37, N-[2-(3,4-dimethylbenzyl)-3-(pivaloyloxy)propyl]-N-hydroxy-N-[3-fluoro-4-(methylsulfonylamino)benzyl]thiourea] | 93.7 | 212 |  |  |  | stronger analgesic effect | 43,000 fold
